Experimental data from patent US12208111B2 (LUNELLA BIOTECH, INC., priority 2018, dated 2025).
Where two headings read alike, the source gives them in different places.

Key:
Assay type in all cases: cell-based, human
[1] = system: normal control MRC-5 cells; assay: xCELLigence real-time cell analysis, normal MRC-5 fibroblasts; details: 90 μM
Description: (§1) In further application of the present approach, the selectivity of azithromycin towards senescent cells was validated using the xCELLigence system. Because senescent cells undergo the so-called senescence-associated secretory phenotype (SASP), which involves dramatic increases in the synthesis and secretion of proteins, the inventors assessed whether the protein measurement assay system under-estimates the senolytic activity of tested compounds. […] The normalized cell index for the control was noticeably higher immediately after treatment, and coincided with the BrdU-only curve until about hour 235. […] For the data shown in FIGS. 9A and 9B, the **** indicates p<0.001. The real-time xCELLigence assay system thus compliments the more static SRB assay, and offers a more direct visualization of the potential senolytic effects of compounds during drug screening. The xCELLigence assays were also used to confirm senolytic activity for roxithromycin and telithromycin. […] MRC-5 fibroblasts were used for these assays. […] Note that in FIG. 10A. * indicates p<0.01. From top to bottom at time 249 hours, the lines represent the control, BrdU-only, Control with roxithromycin (90 μM), and BrdU with roxithromycin. […] The same approach was used to confirm senolytic activity for telithromycin. […] This approach allows the quantification of the onset and kinetics of the cellular response. […]

senescent MRC-5 cells [2] = assay: xCELLigence real-time cell analysis, senescent (BrdU-treated) MRC-5 fibroblasts; details: 90 μM, 5 days after BrdU wash out
Description: as §1

senescent MRC-5 cells [3] = assay: SRB assay, viability of BrdU-induced senescent MRC-5 fibroblasts
Method: (§2) Bromodeoxyuridine (5-bromo-2′-deoxyuridine), also known as BrdU, may be used to induce senescence. BrdU is an analog of the nucleoside thymidine commonly used to identify proliferating cells. BrdU induces controlled DNA damage, and drives cells towards senescence with high efficiency. The BrdU assay of the present approach calls for subjecting normal fibroblasts to prolonged culture (8-days) in the presence of BrdU at 100 μM to induce controlled DNA-damage and senescence. […] Then, isogenically-matched cultures of normal and senescent fibroblasts may be used for drug screening to identify drugs having senolytic activity. Senolytic activity may be detected using the sulforhodamine B assay, also known in the art as the SRB assay. This assay measures the amount of protein remaining attached to the tissue-culture dishes, and is a surrogate marker for cell viability. This approach may be used to rapidly screen compounds, including clinically-approved drugs, such as, for example, antibiotics. […] It should be appreciated that the present approach may be used to screen other compounds.
After that, the SRB assay was performed to determine the effects of the drug on cell viability. […] The scale bar in the upper-right of FIGS. 3B and 3C represents 20 μm.
After the 5-day exposure, the SRB assay was performed to determine the effects of the drug on cell viability. […] The * indicates p<0.05 in FIG. 4.
MRC-5 or BJ cells were plated into 24-well plates. Next day, half of the plate was treated with 100 μM of BrdU while control wells were treated with vehicle only (DMSO) and incubated for 8 days at 37° C. in a 5% CO2 humidified atmosphere. […] BrdU is washed out before the drug treatments.
Sulphorhodamine B assay: After the incubation of the plates cell viability was measured by Sulphorhodamine B assay (SRB). The assay is based on the measurement of cellular protein contents. Cells were fixed with 10% Trichloroacetic acid (TCA) for 1 hour at 4 °C, and were dried overnight at room temperature. Then, plates were incubated with SRB for 30 min, washed twice with 1% acetic acid and air dried for at least 1 h. Finally, the protein-bound dye was dissolved in a 10 mM Tris, pH 8.8, solution and read using a plate reader at 540-nm.

[4] = system: normal MRC-5 lung fibroblasts; assay: SRB assay, viability of normal MRC-5 fibroblasts; details: 100 μM, 5 days
Method: as §2, with “compounds. […]” for “compounds.”
Sulphorhodamine B assay: After the incubation of the plates cell viability was measured by Sulphorhodamine B assay (SRB). […] Finally, the protein-bound dye was dissolved in a 10 mM Tris, pH 8.8, solution and read using a plate reader at 540-nm.

MRC-5 cells = assay: Beta-galactosidase staining; details: 8 days of BrdU treatment
Method: Furthermore, the inventors validated the use of BrdU-induced DNA-damage as being sufficient to induce cellular senescence. […] The results evidence that the cells treated with BrdU underwent cell cycle arrest, as evidenced by both a ˜70% reduction in the number of cells in S-phase, and the induction of beta-galactosidase activity.
Beta-Gal staining: Beta-Galactosidase staining of BrdU-treated MRC-5 cells was performed by Senescence B-Galactosidase Staining Kit (#9860, Cell Signalling Technology Inc.) and was done according to manufacturer's protocol.

MRC-5 fibroblasts = assay: DNA synthesis / cell cycle, Muse cell cycle kit; details: two-day treatment with BrdU
Method: The […] […] Autophagy and Cell cycle analysis: Autophagy (using MuseTMM Autophagy LC3-antibody based Kit, Merck Millipore) and cell cycle (Muse® Cell Cycle Kit, Merck Millipore) experiments were performed according to manufacturer's instructions.

CC[C@H]1OC(=O)[C@H](C)C(=O)[C@H](C)[C@@H](O[C@@H]2O[C@H](C)C[C@H](N(C)C)[C@H]2O)[C@](C)(OC)C[C@@H](C)C(=O)[C@H](C)[C@H]2N(CCCCn3cnc(-c4cccnc4)c3)C(=O)O[C@]12C [Telithromycin, telithromycin]
effect on viability of normal MRC-5 fibroblasts (final cell index) [1]: negligible impact
senescent MRC-5 cells targeted (final cell index) (senescent MRC-5 cells [2]): 100%
senolytic activity in the screening assay (senescent MRC-5 cells [3]): showed beneficial senolytic activity

CC[C@H]1OC(=O)[C@H](C)[C@@H](O[C@H]2C[C@@](C)(OC)[C@@H](O)[C@H](C)O2)[C@H](C)[C@@H](O[C@@H]2O[C@H](C)C[C@H](N(C)C)[C@H]2O)[C@](C)(O)C[C@@H](C)/C(=N\OCOCCOC)[C@H](C)[C@@H](O)[C@]1(C)O [Roxithromycin, roxithromycin]
effect on viability of normal MRC-5 fibroblasts [4]: small effect
effect on viability of normal MRC-5 fibroblasts (final cell index) [1]: minimal effect
senescent MRC-5 cells targeted (final cell index) (senescent MRC-5 cells [2]): 82%
Viability of senescent MRC-5 cells (% versus control) (senescent MRC-5 cells [3]; 50 μM): 100%
effect on senescent MRC-5 cell viability (senescent MRC-5 cells [3]; 50 μM, 5 days): no effect
Viability of senescent MRC-5 cells (% versus control) (senescent MRC-5 cells [3]; 100 μM): 30.99%
senolytic activity in the screening assay (senescent MRC-5 cells [3]; 100 μM): have senolytic activity

CC[C@H]1OC(=O)[C@H](C)[C@@H](O[C@H]2C[C@@](C)(OC)[C@@H](O)[C@H](C)O2)[C@H](C)[C@@H](O[C@@H]2O[C@H](C)C[C@H](N(C)C)[C@H]2O)[C@](C)(O)C[C@@H](C)C(=O)[C@H](C)[C@@H](O)[C@]1(C)O [Erythromycin, erythromycin]
senolytic activity in the screening assay (senescent MRC-5 cells [3]): did not show any senolytic activity
Viability of senescent MRC-5 cells (% versus control) (senescent MRC-5 cells [3]; 50 μM): 100%
Viability of senescent MRC-5 cells (% versus control) (senescent MRC-5 cells [3]; 100 μM): 100%

O=c1[nH]c(=O)n([C@H]2C[C@H](O)[C@@H](CO)O2)cc1Br [BrdU, 5-bromo-2′-deoxyuridine]
beta-galactosidase staining (biomarker of cellular senescence) (MRC-5 cells): positively stained
reduction of DNA synthesis (MRC-5 fibroblasts): ~70%
